Source: US20030147950A1, “Modified release tamsulosin tablets” (priority 2001, published 2003)

Assay: Solubility of tamsulosin HCl in aqueous media
Format: physicochemical
Conditions: up to 10 mg
Text: SGF represents a standard stomach condition. SIF represents a standard intestinal condition. FeSSIF is tailored to better represent the fed state while FaSSIF is tailored to better represent the fasting state. Note that not only are the pH different, but equally important, the osmolarity are also different.

In the case of `CCOc1ccccc1OCCNC(C)Cc1ccc(OC)c(S(N)(=O)=O)c1` (stereo not shown) [tamsulosin HCI, 5-[2-[[2-(2-ethoxyphenoxy)ethyl]amino]propyl]-2-methoxy-benzenesulfonamide], the “volume of any aqueous media needed to dissolve until 10 mg” value was “not more than 500 ml”.
